The target of one experiment is human CSNK1A1 (Homo sapiens (Human), UniProt P48729). Kind of experiment: CSNK1A1 Assay 2 (ADP-Glo, 1 μM ATP). Format: biochemical. Particulars: median, Table 2, read-out: CSNK1A1 Assay 2 IC50 [mol/l] (median). How it is done: CSNK1A1-inhibitory activity of compounds of the present invention in presence of 1 μM adenosine-tri-phosphate (ATP) was quantified employing the CSNK1A1 assay as described in the following paragraphs. In essence, the enzyme activity is measured by quantification of the adenosine-di-phosphate (ADP), which is generated as a co-product of the enzyme reaction, via the “ADP-Glo™ Kinase Assay” kit from the company Promega. This detection system works as follows: In a first step the ATP not consumed in the kinase reaction is quantitatively converted to cAMP employing an adenylate cyclase (“ADP-Glo-reagent”), then the adenylate cyclase is stopped and the ADP generated in the kinase reaction converted to ATP which generates in a luciferase-based reaction a glow-luminescence signal (“Kinase Detection Reagent”).
human CSNK1A1, sequence (P48729 whole entry): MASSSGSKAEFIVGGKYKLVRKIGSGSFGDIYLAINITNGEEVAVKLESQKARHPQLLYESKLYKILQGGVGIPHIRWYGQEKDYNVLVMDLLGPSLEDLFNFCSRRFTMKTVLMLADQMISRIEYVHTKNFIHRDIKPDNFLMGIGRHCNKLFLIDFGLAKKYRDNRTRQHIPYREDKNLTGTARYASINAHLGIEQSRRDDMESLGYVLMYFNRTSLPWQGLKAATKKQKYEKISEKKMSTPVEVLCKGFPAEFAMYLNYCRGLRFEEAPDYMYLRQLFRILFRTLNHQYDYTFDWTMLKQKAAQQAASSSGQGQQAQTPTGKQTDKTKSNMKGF
Recombinant fusion protein of N-terminal Glutathion-S-Transferase (GST) and full-length human CSNK1A1, expressed by baculovirus infected insect cells and purified via Glutathion affinity chromatography, was purchased from Life Technologies (product no. PV4174) and used as enzyme. As substrate for the kinase reaction the biotinylated peptide biotin-Ahx-KRRRAL-pS-VASLPGL (C-terminus in amide form) was used which can be purchased e.g. from the company Biosyntan (Berlin-Buch, Germany).
For the assay 50 nl of a 100 fold concentrated solution of the test compound in DMSO was pipetted into a white 1536-well microtiter plate (Greiner Bio-One, Frickenhausen, Germany), 2 μL of a solution of CSNK1A1 in aqueous assay buffer [50 mM HEPES pH 7.5, 10% (v/v) glycerol, 10 mM MgCl2, 50 mM NaCl, 1 mM dithiothreitol, 0.01% (w/v) bovine serum albumin, 0.01% (v/v) Triton X-100] were added and the mixture was incubated for 15 min at 22° C. to allow pre-binding of the test compounds to the enzyme before the start of the kinase reaction. Then the kinase reaction was started by the addition of 3 μL of a solution of ATP (1.67 μM=>final conc. in the 5 μL assay volume is 1 μM) and peptide substrate (50 μM=>final conc. in the 5 μL assay volume is 30 μM) in assay buffer and the resulting mixture was incubated for a reaction time of 30 min at 22° C. The concentration of CSNK1A1 was adjusted depending of the activity of the enzyme lot and was chosen appropriate to have the assay in the linear range, a typical concentrations are about 0.0375 ng/μL. The reaction was stopped by the addition of 2.5 μL of “ADP-Glo-reagent” (1:1.5 fold diluted with water) and the resulting mixture was incubated at 22° C. for 1 h to convert the ATP not consumed in the kinase reaction completely […]. Subsequently 2.5 μL of the “kinase detection reagent” (1.2 fold more concentrated than recommended by the producer) were added, the resulting mixture was incubated at 22° C. for 1 h and then the luminescence measured with a suitable measurement instrument (e.g. Viewlux™ from Perkin-Elmer). The amount of emitted light was taken as a measure for the amount of ADP generated and thereby for the activity of the CSNK1A1.
(§1) The data were normalised (enzyme reaction without inhibitor=0% inhibition, all other assay components but no enzyme=100% inhibition).

A further experiment addresses human CSNK1D (Homo sapiens (Human), UniProt P48730). Briefly: CSNK1D assay (ADP-Glo, 1 μM ATP). The format is biochemical. Particulars: median, Table 2, read-out: CSNK1D IC50 [mol/l] (median). The protocol: CSNK1D-inhibitory activity of compounds of the present invention in presence of 1 μM adenosine-tri-phosphate (ATP) was quantified employing the CSNK1D assay as described in the following paragraphs. In essence, the enzyme activity is measured by quantification of the adenosine-di-phosphate (ADP), which is generated as a co-product of the enzyme reaction, via the “ADP-Glo™ Kinase Assay” kit from the company Promega. This detection system works as follows: In a first step the ATP not consumed in the kinase reaction is quantitatively converted to cAMP employing an adenylate cyclase (“ADP-Glo-reagent”), then the adenylate cyclase is stopped and the ADP generated in the kinase reaction converted to ATP which generates in a luciferase-based reaction a glow-luminescence signal (“Kinase Detection Reagent”).
Recombinant fusion protein of N-terminal Glutathion-S-Transferase (GST) and full-length human CSNK1D, expressed by baculovirus infected insect cells and purified via Glutathion affinity chromatography, was purchased from Life Technologies (product no. PV3665) and used as enzyme. As substrate for the kinase reaction the biotinylated peptide Btn-Ahx-SGSEGDSESGEEEG (C-terminus in amide form) was used which can be purchased e.g. from the company Biosyntan (Berlin-Buch, Germany).
For the assay 50 nl of a 100 fold concentrated solution of the test compound in DMSO was pipetted into a white 1536-well microtiter plate (Greiner Bio-One, Frickenhausen, Germany), 2 μL of a solution of CSNK1D in aqueous assay buffer [50 mM HEPES pH 7.5, 10% (v/v) glycerol, 10 mM MgCl2, 50 mM NaCl, 1 mM dithiothreitol, 0.01% (w/v) bovine serum albumin, 0.01% (v/v) Triton X-100] were added and the mixture was incubated for 15 min at 22° C. to allow pre-binding of the test compounds to the enzyme before the start of the kinase reaction. Then the kinase reaction was started by the addition of 3 μL of a solution of ATP (1.67 μM=>final conc. in the 5 μL assay volume is 1 μM) and peptide substrate (50 μM=>final conc. in the 5 μL assay volume is 30 μM) in assay buffer and the resulting mixture was incubated for a reaction time of 30 min at 22° C. The concentration of CSNK1D was adjusted depending of the activity of the enzyme lot and was chosen appropriate to have the assay in the linear range, a typical concentration is about 0.5 ng/μL. The reaction was stopped by the addition of 2.5 μL of “ADP-Glo-reagent” (1:1.5 fold diluted with water) and the resulting mixture was incubated at 22° C. for 1 h to convert the ATP not consumed in the kinase reaction completely […]. Subsequently 2.5 μL of the “kinase detection reagent” (1.2 fold more concentrated than recommended by the producer) were added, the resulting mixture was incubated at 22° C. for 1 h and then the luminescence measured with a suitable measurement instrument (e.g. Viewlux™ from Perkin-Elmer). The amount of emitted light was taken as a measure for the amount of ADP generated and thereby for the activity of the CSNK1D.
as §1

Molecules are shown by their SMILES.

human CSNK1D, sequence (P48730 whole entry): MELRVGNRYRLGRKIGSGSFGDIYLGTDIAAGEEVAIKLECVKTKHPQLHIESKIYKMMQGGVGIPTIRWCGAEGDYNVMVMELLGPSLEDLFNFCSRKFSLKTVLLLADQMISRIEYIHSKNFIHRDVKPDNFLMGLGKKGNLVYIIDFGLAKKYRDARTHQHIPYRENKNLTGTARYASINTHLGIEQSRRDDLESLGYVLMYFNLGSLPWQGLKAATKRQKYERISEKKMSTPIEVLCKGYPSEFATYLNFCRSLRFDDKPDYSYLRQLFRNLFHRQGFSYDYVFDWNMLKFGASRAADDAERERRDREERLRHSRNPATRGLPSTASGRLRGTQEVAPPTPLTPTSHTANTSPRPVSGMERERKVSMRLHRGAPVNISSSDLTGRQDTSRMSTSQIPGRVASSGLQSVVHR

Consider `Cn1cc(CC(F)(F)F)c2[nH]c(-c3ccnc(NC(=O)C(CC(F)F)c4ccc(F)cc4)c3)c(Nc3ccccc3)c2c1=O` (racemic) [Example 35, N-{4-[3-anilino-5-methyl-4-oxo-7-(2,2,2-trifluoroethyl)-4,5-dihydro-1H-pyrrolo[3,2-c]pyridin-2-yl]pyridin-2-yl}-4,4-difluoro-2-(4-fluorophenyl)butanamide], for which the IC50 came out at 8 nM at human CSNK1A1 and 5.9 nM at human CSNK1D.

These data come from patent US20230365554A1, “SUBSTITUTED PYRROLO-PYRIDINONE DERIVATIVES AND THERAPEUTIC USES THEREOF” (The Broad Institute, Inc., priority 2020, published 2023).
